Values quoted from earlier work in patent publication US20120220630A1, “PRUCALOPRIDE ORAL SOLUTION” (Shire-Movetis NV, priority 2011, published 2012).

Columns and labels:
5-HT2A receptors = 5-HT2A receptors (Homo sapiens, UniProt P28223)
5-HT4 receptors = 5-HT4 receptors (Homo sapiens, UniProt Q13639)
[1] = test system: colonic motility and defecation; settings: in animals

Sequence of 5-HT4 receptors (Q13639 whole entry): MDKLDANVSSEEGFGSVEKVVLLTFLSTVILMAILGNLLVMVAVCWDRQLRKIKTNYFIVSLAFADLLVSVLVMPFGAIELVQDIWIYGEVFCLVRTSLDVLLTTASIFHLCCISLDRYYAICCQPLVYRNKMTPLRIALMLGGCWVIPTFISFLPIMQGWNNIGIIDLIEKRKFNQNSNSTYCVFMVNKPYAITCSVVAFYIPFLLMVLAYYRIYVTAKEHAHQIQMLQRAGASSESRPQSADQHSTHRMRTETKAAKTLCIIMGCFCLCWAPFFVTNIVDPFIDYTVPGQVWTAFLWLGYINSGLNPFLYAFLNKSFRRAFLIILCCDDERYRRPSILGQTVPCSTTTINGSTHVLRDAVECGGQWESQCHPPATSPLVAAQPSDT
Sequence of 5-HT2A receptors (P28223 whole entry): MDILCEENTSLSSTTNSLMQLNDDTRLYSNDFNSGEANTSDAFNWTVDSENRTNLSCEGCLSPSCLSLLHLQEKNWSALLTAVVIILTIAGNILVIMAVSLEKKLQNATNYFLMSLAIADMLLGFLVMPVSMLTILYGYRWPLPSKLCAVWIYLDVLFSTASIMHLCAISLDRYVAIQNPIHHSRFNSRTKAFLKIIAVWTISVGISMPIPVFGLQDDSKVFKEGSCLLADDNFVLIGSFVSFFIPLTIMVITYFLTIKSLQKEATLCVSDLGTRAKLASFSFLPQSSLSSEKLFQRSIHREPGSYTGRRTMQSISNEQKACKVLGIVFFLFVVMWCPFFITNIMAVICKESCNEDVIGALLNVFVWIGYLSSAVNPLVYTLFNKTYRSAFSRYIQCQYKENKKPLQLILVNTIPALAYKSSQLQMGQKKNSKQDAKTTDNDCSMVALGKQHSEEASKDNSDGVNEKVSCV

COCCCN1CCC(NC(=O)c2cc(Cl)c(N)c3c2OCC3)CC1 [Prucalopride, 4-amino-5-chloro-2,3-dihydro-N-[1-(3-methoxypropyl)-4-piperidinyl]-7-benzofuran-carboxamide]
affinity for 5-HT2A receptors (5-HT2A receptors): no affinity
affinity for 5-HT3 receptors (5-HT3 receptors): no affinity
agonism of 5-HT4 receptors (5-HT4 receptors): potent and selective agonist
colonic motility and defecation [1]: stimulates colonic motility and defecation
